Drawing on ChEMBL document CHEMBL1833938 (Bioorg Med Chem Lett, 2011), this text covers logD and MIC for 13 compounds.

A short description of data set [1]: physchem. The following applies: octanol/water, pH 7.4.
The subject of data set [2] is Staphylococcus aureus. Nature of the data set: microbe, parasite or virus in culture. The note with it: ATCC 29213.
Data set [3] can be described thus: physchem. The note with it: octanol/water, pH 6.5.
The nature of data set [4]: physchem. The note with it: octanol/water, pH 1.5.
Data set [5] deals with Francisella tularensis. Nature of the data set: microbe, parasite or virus in culture. The following applies: Schu S4.
Data set [6] can be described thus: physchem. The note with it: octanol/water, pH 5.
Data set [7] deals with Escherichia coli. Nature of the data set: microbe, parasite or virus in culture. The note with it: ATCC 25922.
Data set [8] concerns Mycobacterium tuberculosis. Briefly: microbe, parasite or virus in culture. The note with it: H37Rv.

Structures are written as SMILES. Values after ≈ are worked out from the molar mass of the structure shown.

With `CO[C@@H]1[C@@H](OC(N)=O)[C@@H](O)[C@H](Oc2ccc3c(O)c(NC(=O)c4cc(CC=C(C)C)c(O)c(CN(C)C(=O)CS(C)(=O)=O)c4)c(=O)oc3c2C)OC1(C)C`, the logD in data set [1] worked out at 0.6; in data set [3] it was 1.15; in data set [4], 1.29; in data set [6] it was 1.28. Also, the MIC was over 64 µg/mL in data set [2], over 64 µg/mL in data set [5], over 64 µg/mL in data set [7] and over 10 µg/mL in data set [8].

Turning to `CO[C@@H]1[C@@H](OC(N)=O)[C@@H](O)[C@H](Oc2ccc3c(O)c(NC(=O)c4cc(CC=C(C)C)c(O)c(CN(C)C(=O)CNC(C)=O)c4)c(=O)oc3c2C)OC1(C)C`, the logD in data set [1] was 0.67; in data set [3], 1.19; in data set [4], 1.33; in data set [6], 1.32. Besides, the MIC in data set [2] was 16 µg/mL (≈ 21.2 µM); in data set [5], over 64 µg/mL; in data set [7] it was over 64 µg/mL; in data set [8] it was 2.5 µg/mL (≈ 3.31 µM).

Consider `CO[C@@H]1[C@@H](OC(N)=O)[C@@H](O)[C@H](Oc2ccc3c(O)c(NC(=O)c4cc(CC=C(C)C)c(O)c(CN(C)C(=O)CCC(=O)O)c4)c(=O)oc3c2C)OC1(C)C`, for which the logD in data set [1] was -1.7; in data set [3], -0.61; in data set [4] it was 2.25; in data set [6], 0.93. The MIC in data set [2] is 64 µg/mL (≈ 84.7 µM); in data set [5], over 64 µg/mL; in data set [7] it was over 64 µg/mL; in data set [8], over 10 µg/mL.

For `CO[C@@H]1[C@@H](OC(N)=O)[C@@H](O)[C@H](Oc2ccc3c(O)c(NC(=O)c4cc(CC=C(C)C)c(O)c(CN(C)C(=O)Cc5nnn[nH]5)c4)c(=O)oc3c2C)OC1(C)C`, the logD in data set [1] is -0.35; in data set [3] it was 0.24; in data set [4], 1.9; in data set [6] it was 1.13. The MIC was over 64 µg/mL in data set [2], over 64 µg/mL in data set [5], over 64 µg/mL in data set [7] and over 10 µg/mL in data set [8].

With `CO[C@@H]1[C@@H](OC(N)=O)[C@@H](O)[C@H](Oc2ccc3c(O)c(NC(=O)c4cc(CC=C(C)C)c(O)c(CN(C)C(=O)CCCS(N)(=O)=O)c4)c(=O)oc3c2C)OC1(C)C`, the logD was found to be 0.62 in data set [1], 1.14 in data set [3], 1.27 in data set [4] and 1.27 in data set [6]. Besides, the MIC in data set [2] was 16 µg/mL (≈ 19.9 µM); in data set [5] it was over 64 µg/mL; in data set [7] it was over 64 µg/mL; in data set [8], 10 µg/mL (≈ 12.4 µM).

On to `CO[C@@H]1[C@@H](OC(N)=O)[C@@H](O)[C@H](Oc2ccc3c(O)c(NC(=O)c4cc(CC=C(C)C)c(O)c(CN(C)C(=O)CN(C)C)c4)c(=O)oc3c2C)OC1(C)C`, for which the figures for the logD in data set [1], in data set [3] and in data set [4] were 1.32, 1.15 and -1.18, respectively. For the same compound, the MIC was over 64 µg/mL in data set [2], over 64 µg/mL in data set [5], over 64 µg/mL in data set [7] and over 10 µg/mL in data set [8].

For the compound `CCN(CC)Cc1cc(C(=O)Nc2c(O)c3ccc(O[C@@H]4OC(C)(C)[C@H](OC)[C@@H](OC(N)=O)[C@H]4O)c(C)c3oc2=O)cc(CC=C(C)C)c1O`, the logD in data set [1] amounted to 1.53; in data set [3], 1.7; in data set [4], 0.42; in data set [6] it was 0.81. Moreover, the MIC is over 64 µg/mL in data set [2], over 64 µg/mL in data set [5], over 64 µg/mL in data set [7] and over 10 µg/mL in data set [8].

With `CO[C@@H]1[C@@H](OC(N)=O)[C@@H](O)[C@H](Oc2ccc3c(O)c(NC(=O)c4cc(CC=C(C)C)c(O)c(CN5CCN(CCCN(C)C)CC5)c4)c(=O)oc3c2C)OC1(C)C`, the logD in data set [1] was -0.59; in data set [3], -1.32; in data set [4] it was -4; in data set [6], -2.97. The MIC in data set [2] was over 64 µg/mL; in data set [5] it was over 64 µg/mL; in data set [7], over 64 µg/mL; in data set [8], over 10 µg/mL.

With `CO[C@@H]1[C@@H](OC(N)=O)[C@@H](O)[C@H](Oc2ccc3c(O)c(NC(=O)c4cc(CC=C(C)C)c(O)c(CN5CCN(c6ncccn6)CC5)c4)c(=O)oc3c2C)OC1(C)C`, the logD in data set [1] is 2.48; in data set [3], 2.63; in data set [4], -0.46; in data set [6] it was 1.46. Further, the MIC in data set [2] is over 64 µg/mL; in data set [5] it was over 64 µg/mL; in data set [7] it was over 64 µg/mL; in data set [8], over 10 µg/mL.

In the case of `CO[C@@H]1[C@@H](OC(N)=O)[C@@H](O)[C@H](Oc2ccc3c(O)c(NC(=O)c4cc(CC=C(C)C)c(O)c(CN5CCCC5)c4)c(=O)oc3c2C)OC1(C)C`, the logD in data set [1] was 1.39; in data set [3], 1.34; in data set [4], 0.11; in data set [6], 0.38. The MIC in data set [2] was over 64 µg/mL; in data set [5], over 64 µg/mL; in data set [7] it was over 64 µg/mL; in data set [8], 10 µg/mL (≈ 14.4 µM).

Consider `CO[C@@H]1[C@@H](OC(N)=O)[C@@H](O)[C@H](Oc2ccc3c(O)c(NC(=O)c4cc(CC=C(C)C)c(O)c(CN(C)C(=O)c5ccccc5)c4)c(=O)oc3c2C)OC1(C)C`, for which the logD in data set [1] is 3.63; in data set [3], 4.15; in data set [4] it was 4.28; in data set [6] it was 4.28. Moreover, the MIC in data set [2] is over 64 µg/mL; in data set [5], over 64 µg/mL; in data set [7] it was over 64 µg/mL; in data set [8], over 10 µg/mL.

Turning to `CO[C@@H]1[C@@H](OC(N)=O)[C@@H](O)[C@H](Oc2ccc3c(O)c(NC(=O)c4cc(CC=C(C)C)c(O)c(CN(C)C(=O)C(C)(C)C)c4)c(=O)oc3c2C)OC1(C)C`, the pH-dependent lipophilicity (logD) came out at 3.58 in data set [1], 4.1 in data set [3], 4.23 in data set [4] and 4.23 in data set [6]. Besides, the MIC was 16 µg/mL (≈ 21.6 µM) in data set [2], 64 µg/mL (≈ 86.5 µM) in data set [5], over 64 µg/mL in data set [7] and over 10 µg/mL in data set [8].

In the case of `CO[C@@H]1[C@@H](OC(N)=O)[C@@H](O)[C@H](Oc2ccc3c(O)c(NC(=O)c4cc(CC=C(C)C)c(O)c(CN(C)C(=O)[C@H](C)OC(C)=O)c4)c(=O)oc3c2C)OC1(C)C`, the logD in data set [1] stood at 1.97; in data set [3], 2.49; in data set [4] it was 2.62; in data set [6], 2.62. In addition, the MIC in data set [2] is 16 µg/mL (≈ 20.8 µM); in data set [5], over 64 µg/mL; in data set [7], over 64 µg/mL; in data set [8], 2.5 µg/mL (≈ 3.25 µM).
